We go through 15 molecules from patent US11702429B2, “mTORC modulators and uses thereof” (Aeovian Pharmaceuticals, Inc., priority 2019, dated 2023).

For one assay, the target named is T1, mTORC1 (Homo sapiens, UniProt P42345+P62942).
T1 construct: endogenous in cells; host or cells: PC3 cells (human prostate adenocarcinoma)
Description: Inhibition assay for mTORC1: phosphorylation of pS6K at Thr389, AlphaLISA in PC3 cells. It counts as cell-based. The note with it: for IC50: read-out: pIC50 mTORC1 (converted).

In a further assay the target is T2, mTORC2 (Homo sapiens, UniProt P42345+P62942).
T2 construct: endogenous in cells; host or cells: PC3 cells (human prostate adenocarcinoma)
Description: Inhibition assay for mTORC2: phosphorylation of pAkt at Ser473, AlphaLISA in PC3 cells. Type of assay: cell-based. The note with it: for IC50: read-out: pIC50 mTORC2 (converted). A general note: In Alpha technology, singlet oxygen from a donor bead excites a nearby acceptor bead.

Where [1] appears, read: PC3 cells, treated 24 hours, pS6K Thr389, AlphaLISA, C16 diastereomer mixtures not separated.
Where [2] appears, read: PC3 cells, treated 24 hours, pAkt Ser473, AlphaLISA, C16 diastereomer mixtures not separated.

SMILES strings stand for the structures. Read-outs that look alike come from different tables or passages of the source.

T2 sequence (P62942 2-108 limits assumed, other chains not shown): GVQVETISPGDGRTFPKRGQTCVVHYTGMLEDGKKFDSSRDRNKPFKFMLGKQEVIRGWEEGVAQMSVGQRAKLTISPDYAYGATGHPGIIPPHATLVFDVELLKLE

`COCCOCCOC1C[C@@H]2CC[C@@H](C)[C@@](O)(O2)C(=O)C(=O)N2CCCCC2C(=O)O[C@H]([C@H](C)C[C@@H]2CC[C@@H](O)[C@H](OC)C2)CC(=O)[C@H](C)/C=C(\C)[C@@H](O)[C@@H](OC)C(=O)[C@H](C)C[C@H](C)/C=C/C=C/C=C/1C` (stereo partly drawn) [Compound 227]: the figures for the IC50 at mTORC1 and on mTORC2 were under 0.316 nM and over 10 µM, respectively.

As to `COC1C[C@@H]2CC[C@@H](C)[C@@](O)(O2)C(=O)C(=O)N2CCCCC2C(=O)O[C@H]([C@H](C)C[C@@H]2CC[C@@H](OC(=O)NCCCN3CCOCC3)[C@H](OC)C2)CC(=O)[C@H](C)/C=C(\C)[C@@H](O)[C@@H](OC)C(=O)[C@H](C)C[C@H](C)/C=C/C=C/C=C/1C` (stereo partly drawn) [Compound 344], the IC50 was under 0.316 nM on mTORC1 and under 1 µM at mTORC2.

In the case of `CO[C@@H]1C[C@H](C[C@@H](C)[C@@H]2CC(=O)[C@H](C)/C=C(\C)[C@@H](O)[C@@H](OC)C(=O)[C@H](C)C[C@H](C)/C=C/C=C/C=C(\C)C(OCCO)C[C@@H]3CC[C@@H](C)[C@@](O)(O3)C(=O)C(=O)N3CCCCC3C(=O)O2)CC[C@H]1O` (stereo partly drawn) [Compound 219, (1R,9S,12S,15R,16E,18R,19R,21R,23S,24E,26E,28E,32S,35R)-1,18-dihydroxy-30-(2-hydroxyethoxy)-12-[(1R)-2-[(1S,3R,4R)-4-hydroxy-3-methoxy-cyclohexyl]-1-methyl-ethyl]-19-methoxy-15,17,21,23,29,35-hexamethyl-11,36-dioxa-4-azatricyclo[30.3.1.0^4,9]hexatriaconta-16,24,26,28-tetraene-2,3,10,14,20-pentone], the results for the IC50 on mTORC1 and on mTORC2 were 0.316 to 3.16 nM and over 10 µM, respectively.

In the case of `COC1C[C@@H]2CC[C@@H](C)[C@@](O)(O2)C(=O)C(=O)N2CCCCC2C(=O)O[C@H]([C@H](C)C[C@@H]2CC[C@@H](OCCOCCOCCOCCOCCO)[C@H](OC)C2)CC(=O)[C@H](C)/C=C(\C)[C@@H](O)[C@@H](OC)C(=O)[C@H](C)C[C@H](C)/C=C/C=C/C=C/1C` (stereo partly drawn) [Compound 350], the IC50 on mTORC1 is under 0.316 nM; at mTORC2, under 1 µM.

As to `COCCOC1C[C@@H]2CC[C@@H](C)[C@@](O)(O2)C(=O)C(=O)N2CCCC[C@H]2C(=O)O[C@H]([C@H](C)C[C@@H]2CC[C@@H](OCCCN3CC4(COC4)C3)[C@H](OC)C2)CC(=O)[C@H](C)/C=C(\C)[C@@H](O)[C@@H](OC)C(=O)[C@H](C)C[C@H](C)/C=C/C=C/C=C/1C` (mixture of isomers) [Compound 26], the IC50 on mTORC1 (setting [1]) is under 0.316 nM; at mTORC2 (setting [2]), over 10 µM.

With `COCCOC1CC2CCC(C)C(O)(O2)C(=O)C(=O)N2CCCCC2C(=O)OC(C(C)CC2CCC(OCCCN3CCOCC3C)C(OC)C2)CC(=O)C(C)C=C(C)C(O)C(OC)C(=O)C(C)CC(C)C=CC=CC=C1C` (mixture of isomers) [Compound 42], the IC50 on mTORC1 (setting [1]) is under 0.316 nM; on mTORC2 (setting [2]), 1 to 10 µM.

Take `COCCCO[C@@H]1CC[C@@H](C[C@@H](C)[C@@H]2CC(=O)[C@H](C)/C=C(\C)[C@@H](O)[C@@H](OC)C(=O)[C@H](C)C[C@H](C)/C=C/C=C/C=C(\C)C(OC)C[C@@H]3CC[C@@H](C)[C@@](O)(O3)C(=O)C(=O)N3CCCCC3C(=O)O2)C[C@H]1OC` (stereo partly drawn) [Compound 308, (1R,9S,12S,15R,16E,18R,19R,21R,23S,24E,26E,28E,30S,32S,35R)-1,18-dihydroxy-19,30-dimethoxy-12-[(1R)-2-[(1S,3R,4R)-3-methoxy-4-(3-methoxypropoxy)cyclohexyl]-1-methyl-ethyl]-15,17,21,23,29,35-hexamethyl-11,36-dioxa-4-azatricyclo[30.3.1.0^4,9]hexatriaconta-16,24,26,28-tetraene-2,3,10,14,20-pentone]: the IC50 at mTORC1 is under 0.316 nM; on mTORC2 it was under 1 µM.

In the case of `CO[C@@H]1C[C@H](C[C@@H](C)[C@@H]2CC(=O)[C@H](C)/C=C(\C)[C@@H](O)[C@@H](OC)C(=O)[C@H](C)C[C@H](C)/C=C/C=C/C=C(\C)C(OCCO)C[C@@H]3CC[C@@H](C)[C@@](O)(O3)C(=O)C(=O)N3CCCC[C@H]3C(=O)O2)CC[C@H]1OC(=O)NCCc1ccccc1` (mixture of isomers) [Compound 1, [(1R,2R,4S)-4-[(2R)-2-[(1R,9S,12SR,15R,16E,18R,19R,21R,23S,24E,26E,28E,32SR,35R)-1,18-dihydroxy-30-(2-hydroxyethoxy)-19-methoxy-15,17,21,23,29,35-hexamethyl-2,3,10,14,20-pentaoxo-11,36-dioxa-4-azatricyclo[30.3.1.0^4,9]hexatriaconta-16,24,26,28-tetraen-1^2-yl]propyl]-2-methoxy-cyclohexyl] N-(2-phenylethyl)carbamate], the figures for the IC50 at mTORC1 (setting [1]) and on mTORC2 (setting [2]) were under 0.316 nM and over 10 µM, respectively.

Turning to `COCCCOC1C[C@@H]2CC[C@@H](C)[C@@](O)(O2)C(=O)C(=O)N2CCCCC2C(=O)O[C@H]([C@H](C)C[C@@H]2CC[C@@H](O)[C@H](OC)C2)CC(=O)[C@H](C)/C=C(\C)[C@@H](O)[C@@H](OC)C(=O)[C@H](C)C[C@H](C)/C=C/C=C/C=C/1C` (stereo partly drawn) [Compound 225], the IC50 was under 0.316 nM on mTORC1 and 1 to 10 µM at mTORC2.

As for `CO[C@@H]1C[C@H](C[C@@H](C)[C@@H]2CC(=O)[C@H](C)/C=C(\C)[C@@H](O)[C@@H](OC)C(=O)[C@H](C)C[C@H](C)/C=C/C=C/C=C(\C)C(c3ccc(C)s3)C[C@@H]3CC[C@@H](C)[C@@](O)(O3)C(=O)C(=O)N3CCCCC3C(=O)O2)CC[C@H]1O` (stereo partly drawn) [Compound 202], the IC50 was over 3.16 nM on mTORC1 and 1 to 10 µM on mTORC2.

Regarding `COC1CC(CC(C)C2CC(=O)C(C)C=C(C)C(O)C(OC)C(=O)C(C)CC(C)C=CC=CC=C(C)C(OCCO)CC3CCC(C)C(O)(O3)C(=O)C(=O)N3CCCCC3C(=O)O2)CCC1OCCCN1CCOCC1C` (mixture of isomers) [Compound 5], the IC50 at mTORC1 (setting [1]) is under 0.316 nM; at mTORC2 (setting [2]), over 10 µM.

Take `COC1C[C@@H]2CC[C@@H](C)[C@@](O)(O2)C(=O)C(=O)N2CCCCC2C(=O)O[C@H]([C@H](C)C[C@@H]2CC[C@@H](OC(=O)NCCn3cnnn3)[C@H](OC)C2)CC(=O)[C@H](C)/C=C(\C)[C@@H](O)[C@@H](OC)C(=O)[C@H](C)C[C@H](C)/C=C/C=C/C=C/1C` (stereo partly drawn) [Compound 312]: the IC50 at mTORC1 is under 0.316 nM; at mTORC2, under 1 µM.

For `COCCCO[C@@H]1CC[C@@H](C[C@@H](C)[C@@H]2CC(=O)[C@H](C)/C=C(\C)[C@@H](O)[C@@H](OC)C(=O)[C@H](C)C[C@H](C)/C=C/C=C/C=C(\C)C(OCCOC)C[C@@H]3CC[C@@H](C)[C@@](O)(O3)C(=O)C(=O)N3CCCCC3C(=O)O2)C[C@H]1OC` (stereo partly drawn) [Compound 14], the “pIC50 mTORC1” value at mTORC1 (setting [1]) was “A (pIC50 for mTORC1 of >9.5 as A)”. Besides, the “pIC50 mTORC2” value on mTORC2 (setting [2]) is given as “A (PIC50 for mTORC2 of <5 as A)”.

Consider `COC1C[C@@H]2CC[C@@H](C)[C@@](O)(O2)C(=O)C(=O)N2CCCCC2C(=O)O[C@H]([C@H](C)C[C@@H]2CC[C@@H](OCCN3CCN(C)CC3)[C@H](OC)C2)CC(=O)[C@H](C)/C=C(\C)[C@@H](O)[C@@H](OC)C(=O)[C@H](C)C[C@H](C)/C=C/C=C/C=C/1C` (stereo partly drawn) [Compound 320], for which the IC50 was under 0.316 nM on mTORC1 and under 1 µM on mTORC2.

For the molecule `COCCOC1C[C@@H]2CC[C@@H](C)[C@@](O)(O2)C(=O)C(=O)N2CCCC[C@H]2C(=O)O[C@H]([C@H](C)C[C@@H]2CC[C@@H](OCCN3CC4(COC4)C3)[C@H](OC)C2)CC(=O)[C@H](C)/C=C(\C)[C@@H](O)[C@@H](OC)C(=O)[C@H](C)C[C@H](C)/C=C/C=C/C=C/1C` (mixture of isomers) [Compound 44], the IC50 on mTORC1 (setting [1]) was under 0.316 nM; at mTORC2 (setting [2]), 1 to 10 µM.
